Where “and” joins values, the source holds several entries; their conditions need not be identical. Identical values can stand only once.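 Method: 48-hour compound exposure of cells in 96-well plates, five concentrations, linear interpolation of endpoints. At the GI50, growth is halved. TGI marks complete inhibition of growth.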
Tested on: MDA-MB-468 breast
Test: growth of human tumour cells (NCI), 48 h

Compound | GI50 | TGI
O=C(c1ccccc1)C(CN1CCOCC1)c1ccccc1 (centres undefined) | 0.382 µM | 1.59 µM
Cc1ccc(C(=O)Nc2ccc(CN3CCN(C)CC3)c(C(F)(F)F)c2)cc1C#Cc1cnc2cccnn12 | 0.461 µM and 1.5 µM | 1.72 µM and 4.22 µM
O[C@H]1CO[C@H]2[C@@H]1OC[C@@H]2Oc1ccc(Nc2ccnc(Nc3ccc(O[C@H]4CO[C@H]5[C@@H]4OC[C@@H]5O)c(Cl)c3)n2)cc1Cl | 1.18 µM | 3.81 µM
Cc1ccc(NC(=O)/C=C/c2ccccc2)c(C(N)=O)c1 | 3.17 µM | 28.1 µM
Cc1ccc(C(=O)Nc2cccc(C(F)(F)F)c2)cc1Nc1nc(-c2cccnc2)nc2c1cnn2C | 3.02 µM and 1.78 µM | 8.4 µM and 4.48 µM
C[C@]12CCC3[C@@H](CC[C@@H]4c5nonc5CC[C@]34C)C1CCC(=O)N2 (some centres undefined) | 60.2 µM | > 100 µM
Cc1cc(NCc2cc(Nc3ccnc4cc(Cl)ccc34)ccc2F)nc(N2CCCC2)n1 | 1.33 µM | 3.07 µM
O=c1[nH]c2ccccc2nc1-c1c[nH]c2ccccc12 | > 100 µM | > 100 µM
Nc1ncnc2[nH]ncc12 | 0.219 µM | 2.85 µM
CN1CCN(Cc2ccc(NC(=O)c3cncc(C#Cc4cnc(N)c5ccncc45)c3)cc2C(F)(F)F)CC1 | 1.26 µM | 8.24 µM
COc1cccc(NC(=O)c2sc3nc4c(cc3c2N)CN(Cc2ccccc2)CC4)c1 | 2.6 µM | 61.4 µM
CCN=C1C=CC(=C(c2ccc(N)cc2)c2ccc(N(CC)CC)c(C)c2)C=C1 | 0.193 µM | 0.718 µM
O=S(=O)(NCCNC/C=C/c1ccc(Br)cc1)c1cccc2cnccc12 | 3.3 µM and 5.06 µM | 13.8 µM and 18.5 µM
Cc1cc2c3ccc(C)[n+](C)c3ccc2n1C | 1.12 µM | 8.5 µM
N/C(=N\N=C\c1ccc(-c2ccccc2)cc1)N[N+](=O)[O-] | 0.935 µM | > 100 µM
Clc1cc(Cl)c(OCC#CI)cc1Cl | 2.36 µM | 7.29 µM
CN(C)c1ccc2c(c1)Sc1cc(N(C)C)ccc1N2C(=O)c1ccccc1 | 44.7 µM | > 100 µM
COc1ccc(-c2cc(-c3ccccc3)nc(SCCCC(=O)NO)n2)cc1 | 1.14 µM | 4.52 µM
Cc1ccc(-c2cc(-c3ccc(C)cc3)nc(NCCNc3ccnc4cc(Cl)ccc34)n2)cc1 | 1.44 µM | 3.06 µM
O=[N+]([O-])c1cccc(-c2nc3sccn3c2-c2ccnc(NCCCNS(=O)(=O)c3cccc(F)c3)n2)c1 | 0.829 µM | 6.1 µM
COc1ccc(-c2n[nH]nc2-c2cc(OC)c3c(c2OC)OCO3)cc1 | 0.386 µM | 1.49 µM
CCN(C(=O)N1CCN(c2cc3c(cc2F)c(=O)c(C(=O)O)cn3C2CC2)CC1)c1nc(-c2ccc(C)cc2)cs1 | 1.13 µM | 7.4 µM
C[C@]12CC[C@H]3[C@@H](CCC4=CC(=O)CC[C@@H]43)[C@@H]1CC[C@@H]2OC(=O)CCc1ccccc1 | > 61.4 µM | > 100 µM
CC(C)CC(CC1=CCC2CC1C2(C)C)C1=C(O)C(C)(C)C(=O)C(C)(C)C1=O (centres undefined) | 0.268 µM | 1.33 µM

Compound | GI50 | TGI
O=C(C1CCCCC1)[C@@H]1[C@]2(C(=O)NC3CCCCC32)[C@@H]2CCCN2[C@@]12C(=O)NC1CCC(Cl)CC12 (some centres undefined) | 121 µM | 277 µM
C=CC(=O)N(C)[C@H]1C[C@H]2OC(C)(C1OC)n1c3ccccc3c3c4c(c5c6ccccc6n2c5c31)C(=O)NC4 (some centres undefined) | 0.0571 µM | 0.235 µM
CCCn1c(C)nc2c1C(=O)c1ccccc1C2=O | 18.7 µM | 56.7 µM
CN(C)c1ccc(/C=C\c2cccc[n+]2C)cc1 | 0.988 µM | 5.76 µM
C=C1CC[C@@H]2[C@](C)(COC(C)=O)[C@@H](O)CC[C@@]2(C)[C@@H]1COc1ccc2ccc(=O)oc2c1 | > 100 µM | > 100 µM
CCC1C(c2cc(OC)c(OC)c(OC)c2)c2cc3c(cc2OC1N1CCCC1)OCO3 (centres undefined) | 4.23 µM | 25.2 µM
CC(CN1CCN(CCOCCO)CC1)CN1c2ccccc2Sc2ccc(Cl)cc21 (centres undefined) | 1.69 µM | 4.14 µM
O=C1c2c(c3c4ccccc4[nH]c3c3ccc4ccccc4c23)C(=O)N1CCN1CCCCC1 | 0.38 µM | 2.49 µM
Cn1c2c(cc(S(=O)(=O)c3ccccc3)c1=O)CCc1c-2cnn1-c1ccc(Cl)cc1 | 2.39 µM | 5.65 µM
N#C/C(=C\c1c(-c2ccccc2)[nH]c2ccccc12)S(=O)(=O)c1ccccc1 | 1.86 µM | > 28.3 µM
CCN1CCC(CCOC)(CN2c3ccccc3Sc3ccc(Cl)cc32)C1 (centres undefined) | 1.66 µM | 3.37 µM
CS(=O)(=O)c1ccc(C(=O)Nc2ccc(Cl)c(-c3ccccn3)c2)c(Cl)c1 | 20.8 µM and 2.16 µM | > 86 µM and 9.69 µM
C/C(=N\Nc1ccc2ccccc2n1)c1ccccn1 | 0.0962 µM | 0.705 µM
C=CC(=O)N1CCN(c2ccc3cccc(NC(=O)c4cnc(C)cn4)c3n2)CC1 | 1.83 µM | 7.45 µM
O=C(/C(=C/c1ccccc1)CN1CCCCC1)c1ccccc1 | 0.531 µM | 1.95 µM
CC1=C(CCC(C)N(C)Cc2ccc(OCCCN3CCCC3)cc2)C(C)(C)CCC1 (centres undefined) | 2.15 µM | 5.75 µM
COc1ccc(C2CC(c3cc(OC)c(OC)c(OC)c3)=NN2C(C)=O)cc1OCC(=O)Nc1nc2ccc(C(F)(F)F)cc2s1 (centres undefined) | 6.12 µM | 29.1 µM
C=CC(=O)Nc1cccc(C)c1Nc1cc(-c2cccnc2Cc2c(C)c(OC)cc(OC)c2C)ncn1 | 5.85 µM | 24.7 µM
CC(C)(C)c1ccc(OCCCCCCN2CCNCC2)cc1 | 2.38 µM | 6.78 µM
CCCn1cnc2c(c1=N)C(c1ccc(Cl)cc1)c1sc3c(C)cccc3c1O2 (centres undefined) | 0.361 µM | 3.9 µM
Cc1cc(N/N=C/c2nc(-c3ccc(Br)cc3)oc2C)c2cc(Cl)ccc2n1 | > 100 µM | > 100 µM
COC(=O)C(Cc1ccccc1)NC(=O)NC(=O)NC(=O)CI (centres undefined) | 4.1 µM | 15.1 µM
CN(C)CCCN1c2ccccc2CCc2ccc(Cl)cc21 | 1.42 µM | 3.23 µM

From PubChem BioAssay (NCI)
